Assay in all cases: HotSpot kinase profiling
Common to all, as to format: biochemical

For one assay, the target named is T1, CK1a1 (Homo sapiens, UniProt P48729).
T1 construct: purchased Reaction Biology Corp
In a few lines: (§1)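 Percent inhibition, averaged when run more than once and referenced to a DMSO negative control, came from a radioactive filter-binding readout on P81 paper. Reactions of kinase with freshly made substrate and cofactors ran for 2 h at room temperature.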

The target in another assay is T2, DYRK1B (Homo sapiens, UniProt Q9Y463).
T2 construct: purchased Reaction Biology Corp
T2 sequence (Q9Y463 whole entry): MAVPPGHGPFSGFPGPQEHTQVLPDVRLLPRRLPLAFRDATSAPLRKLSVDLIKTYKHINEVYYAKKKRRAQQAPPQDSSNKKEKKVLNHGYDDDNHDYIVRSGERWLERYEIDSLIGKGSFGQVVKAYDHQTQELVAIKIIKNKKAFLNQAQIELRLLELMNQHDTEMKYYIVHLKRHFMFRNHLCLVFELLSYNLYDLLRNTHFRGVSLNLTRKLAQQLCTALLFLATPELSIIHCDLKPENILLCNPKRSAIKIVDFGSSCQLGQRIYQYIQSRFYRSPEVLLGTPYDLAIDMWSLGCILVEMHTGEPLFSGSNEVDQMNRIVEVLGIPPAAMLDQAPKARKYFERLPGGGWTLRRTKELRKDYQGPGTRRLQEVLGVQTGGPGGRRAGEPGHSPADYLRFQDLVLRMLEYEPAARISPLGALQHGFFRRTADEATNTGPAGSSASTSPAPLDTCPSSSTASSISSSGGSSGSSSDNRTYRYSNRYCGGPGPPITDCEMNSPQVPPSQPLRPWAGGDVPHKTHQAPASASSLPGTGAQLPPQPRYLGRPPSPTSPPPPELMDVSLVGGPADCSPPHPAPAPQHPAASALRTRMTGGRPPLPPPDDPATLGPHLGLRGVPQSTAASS
The essentials:
as §1

The next assay has as its target T3, FLT3 (Homo sapiens, UniProt P36888).
T3 construct: purchased Reaction Biology Corp
T3 sequence (P36888 27-993): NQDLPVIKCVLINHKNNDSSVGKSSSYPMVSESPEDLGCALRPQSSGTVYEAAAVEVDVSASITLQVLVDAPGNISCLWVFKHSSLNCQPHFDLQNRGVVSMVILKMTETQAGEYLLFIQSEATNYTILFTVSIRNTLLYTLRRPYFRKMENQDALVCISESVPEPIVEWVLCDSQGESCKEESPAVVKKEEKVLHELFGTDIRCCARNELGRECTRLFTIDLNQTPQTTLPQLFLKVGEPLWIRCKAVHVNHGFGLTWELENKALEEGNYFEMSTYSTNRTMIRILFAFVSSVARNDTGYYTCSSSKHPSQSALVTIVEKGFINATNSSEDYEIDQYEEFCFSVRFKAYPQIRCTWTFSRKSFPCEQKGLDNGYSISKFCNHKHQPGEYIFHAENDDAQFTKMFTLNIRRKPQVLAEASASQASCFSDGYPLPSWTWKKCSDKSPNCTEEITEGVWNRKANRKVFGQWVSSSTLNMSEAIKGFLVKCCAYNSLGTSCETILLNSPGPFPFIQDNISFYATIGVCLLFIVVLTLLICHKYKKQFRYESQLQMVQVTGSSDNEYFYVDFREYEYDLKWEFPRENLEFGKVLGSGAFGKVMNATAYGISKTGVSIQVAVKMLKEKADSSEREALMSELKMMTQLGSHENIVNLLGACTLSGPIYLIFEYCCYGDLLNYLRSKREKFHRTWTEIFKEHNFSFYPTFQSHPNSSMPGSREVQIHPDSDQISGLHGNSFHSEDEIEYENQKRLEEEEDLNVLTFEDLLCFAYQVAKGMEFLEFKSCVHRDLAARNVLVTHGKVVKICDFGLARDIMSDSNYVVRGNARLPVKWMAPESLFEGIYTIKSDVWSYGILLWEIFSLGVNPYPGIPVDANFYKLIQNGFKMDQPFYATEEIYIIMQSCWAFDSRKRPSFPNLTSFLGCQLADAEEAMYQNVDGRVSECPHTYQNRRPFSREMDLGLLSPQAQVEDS
In a few lines: as §1

The next assay concerns the target T4, GRK2 (Homo sapiens, UniProt P25098).
T4 construct: purchased Reaction Biology Corp
T4 sequence (P25098 1-689): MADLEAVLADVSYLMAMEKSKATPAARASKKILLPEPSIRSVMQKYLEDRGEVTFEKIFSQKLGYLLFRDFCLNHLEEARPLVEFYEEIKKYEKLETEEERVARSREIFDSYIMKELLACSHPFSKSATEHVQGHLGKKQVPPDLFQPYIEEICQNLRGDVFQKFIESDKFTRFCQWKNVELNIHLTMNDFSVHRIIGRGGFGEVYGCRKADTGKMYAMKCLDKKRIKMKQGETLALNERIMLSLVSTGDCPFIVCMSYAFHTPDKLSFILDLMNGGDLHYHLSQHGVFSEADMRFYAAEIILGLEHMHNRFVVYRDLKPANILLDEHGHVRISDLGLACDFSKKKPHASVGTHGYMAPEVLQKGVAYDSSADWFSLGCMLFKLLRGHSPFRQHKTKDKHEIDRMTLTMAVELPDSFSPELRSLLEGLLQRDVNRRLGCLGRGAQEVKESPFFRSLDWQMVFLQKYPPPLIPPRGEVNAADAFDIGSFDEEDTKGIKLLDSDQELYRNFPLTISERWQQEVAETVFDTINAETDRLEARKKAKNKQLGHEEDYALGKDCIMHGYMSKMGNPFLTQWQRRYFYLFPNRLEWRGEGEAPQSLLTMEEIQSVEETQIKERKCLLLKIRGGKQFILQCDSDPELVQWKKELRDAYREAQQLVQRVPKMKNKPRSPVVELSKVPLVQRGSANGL
In a few lines:
as §1

Another assay addresses T5, PKAcg (Homo sapiens, UniProt P22612).
T5 construct: purchased Reaction Biology Corp
The essentials:
as §1

The next assay addresses T6, SRPK1 (Homo sapiens, UniProt Q96SB4).
T6 construct: purchased Reaction Biology Corp
The essentials: as §1

The target in another assay is T7, TGFBR2 (Homo sapiens, UniProt P37173).
T7 construct: purchased Reaction Biology Corp
T7 sequence (P37173 23-567): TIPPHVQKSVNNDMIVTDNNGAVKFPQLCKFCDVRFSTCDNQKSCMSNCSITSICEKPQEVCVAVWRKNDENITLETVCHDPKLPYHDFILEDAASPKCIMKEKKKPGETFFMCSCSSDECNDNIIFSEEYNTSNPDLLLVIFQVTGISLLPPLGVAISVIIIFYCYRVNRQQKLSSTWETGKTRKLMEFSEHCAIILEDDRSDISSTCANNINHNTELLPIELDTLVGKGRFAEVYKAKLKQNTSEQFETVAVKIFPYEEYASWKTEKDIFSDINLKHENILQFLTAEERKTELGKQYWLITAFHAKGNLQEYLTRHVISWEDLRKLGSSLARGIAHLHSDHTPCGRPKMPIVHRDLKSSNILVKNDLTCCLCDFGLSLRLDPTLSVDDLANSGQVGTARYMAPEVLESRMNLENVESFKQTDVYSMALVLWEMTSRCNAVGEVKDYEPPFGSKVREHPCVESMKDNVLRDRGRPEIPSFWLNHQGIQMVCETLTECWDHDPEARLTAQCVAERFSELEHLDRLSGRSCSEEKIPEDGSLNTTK
The essentials:
as §1

The mark [1] stands for this setting: read-out: % Enzyme Activity (relative to DMSO controls) Run 1.
The mark [2] stands for this setting: read-out: % Enzyme Activity (relative to DMSO controls) Run 2.

The structures appear in SMILES notation. Read-outs that look alike come from different tables or passages of the source.

T5 sequence (P22612 whole entry): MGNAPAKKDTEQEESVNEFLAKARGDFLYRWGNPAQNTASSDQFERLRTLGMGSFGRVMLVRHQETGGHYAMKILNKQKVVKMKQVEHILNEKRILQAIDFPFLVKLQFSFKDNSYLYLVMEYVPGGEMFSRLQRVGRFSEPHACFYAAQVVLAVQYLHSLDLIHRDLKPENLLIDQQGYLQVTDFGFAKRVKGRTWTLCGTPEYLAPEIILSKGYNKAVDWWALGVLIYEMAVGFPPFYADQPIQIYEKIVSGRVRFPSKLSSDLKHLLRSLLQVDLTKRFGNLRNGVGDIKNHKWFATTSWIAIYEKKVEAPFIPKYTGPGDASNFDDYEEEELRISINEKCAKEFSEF
T6 sequence (Q96SB4 whole entry): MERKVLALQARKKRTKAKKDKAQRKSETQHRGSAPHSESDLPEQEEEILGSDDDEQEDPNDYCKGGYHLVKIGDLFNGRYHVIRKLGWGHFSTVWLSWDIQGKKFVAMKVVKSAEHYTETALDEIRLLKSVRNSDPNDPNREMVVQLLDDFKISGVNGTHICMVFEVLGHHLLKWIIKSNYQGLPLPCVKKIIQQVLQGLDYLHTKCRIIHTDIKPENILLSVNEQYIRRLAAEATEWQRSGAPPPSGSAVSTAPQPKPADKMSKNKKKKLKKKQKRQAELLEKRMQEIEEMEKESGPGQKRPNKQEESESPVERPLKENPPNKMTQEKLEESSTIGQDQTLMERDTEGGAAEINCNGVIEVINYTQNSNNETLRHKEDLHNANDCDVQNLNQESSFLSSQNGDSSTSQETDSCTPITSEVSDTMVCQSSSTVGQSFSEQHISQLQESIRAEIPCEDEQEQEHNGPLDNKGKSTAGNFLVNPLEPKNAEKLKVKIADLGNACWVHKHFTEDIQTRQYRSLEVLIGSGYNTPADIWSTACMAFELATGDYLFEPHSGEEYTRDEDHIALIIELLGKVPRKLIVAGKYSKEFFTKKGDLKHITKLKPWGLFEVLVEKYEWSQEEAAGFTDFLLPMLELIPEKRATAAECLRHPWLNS
T1 sequence (P48729 whole entry): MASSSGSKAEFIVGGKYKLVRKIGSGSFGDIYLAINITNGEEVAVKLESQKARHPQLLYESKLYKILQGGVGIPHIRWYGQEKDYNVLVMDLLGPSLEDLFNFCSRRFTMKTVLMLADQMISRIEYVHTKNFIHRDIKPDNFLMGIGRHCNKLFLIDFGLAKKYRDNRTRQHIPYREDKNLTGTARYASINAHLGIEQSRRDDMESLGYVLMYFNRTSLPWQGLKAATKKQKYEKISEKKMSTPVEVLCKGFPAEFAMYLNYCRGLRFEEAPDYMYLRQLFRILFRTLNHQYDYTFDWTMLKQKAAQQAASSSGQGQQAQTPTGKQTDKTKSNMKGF

In general, inhibition refers to the change of the read-out against control, counted positive when it falls. Consider `C=CC(=O)Nc1cccc(Nc2nc(Nc3ccc(OCCOC)c(F)c3)ncc2F)c1` [Compound 2], for which the inhibition at 3 µM was -6.67% against CK1a1; 20.2% against DYRK1B; 96.8% on FLT3; -4.03% on GRK2; -27.8% against PKAcg; 2.23% at SRPK1. In addition, the inhibition at 3 µM at TGFBR2 was -0.19%. Moreover, the remaining activity at 3 µM on CK1a1 (setting [1]) amounted to 108%; on CK1a1 (setting [2]) it was 106%; on DYRK1B (setting [1]), 78.6%; on DYRK1B (setting [2]), 80.9%; at FLT3 (setting [1]), 3.19%; on FLT3 (setting [2]) it was 3.25%. In addition, the remaining activity at 3 µM was 104% on GRK2 (setting [1]); 104% at GRK2 (setting [2]); 128% at PKAcg (setting [1]); 128% on PKAcg (setting [2]); 98.8% on SRPK1 (setting [1]); 96.7% on SRPK1 (setting [2]). Besides, the remaining activity at 3 µM is 98.1% on TGFBR2 (setting [1]) and 102% on TGFBR2 (setting [2]).

Source of the values: patent US9492471B2, “Methods of treating a disease or disorder associated with Bruton'S Tyrosine Kinase” (Celgene Avilomics Research, Inc., priority 2013, dated 2016).
